Active and inactive are the calls of the source. The rule behind the calls is not given here.
How the values were obtained:
[1] = target: T1, Proteasome Macropain subunit MB1 (Homo sapiens) (UniProt P28074); assay: Inhibition of chymotrypsin-like activity of human 20S proteasome at 100 nM using Suc-Leu-Leu-Val-Tyr-AMC as substrate by fluorescence assay relative to control
T1 sequence (whole entry): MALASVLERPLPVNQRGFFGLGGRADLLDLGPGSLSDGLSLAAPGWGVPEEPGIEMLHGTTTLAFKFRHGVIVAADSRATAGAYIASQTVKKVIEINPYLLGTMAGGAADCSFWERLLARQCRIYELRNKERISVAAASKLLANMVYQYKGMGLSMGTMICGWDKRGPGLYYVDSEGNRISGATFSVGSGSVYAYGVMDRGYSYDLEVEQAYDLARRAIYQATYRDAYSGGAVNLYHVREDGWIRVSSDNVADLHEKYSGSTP

[2] = target: T2, Proteasome Macropain subunit MB1 (Homo sapiens, UniProt P28074); assay: Inhibition of chymotrypsin-like activity of human 20S proteasome using Suc-Leu-Leu-Val-Tyr-AMC as substrate by fluorescence assay
T2 sequence (P28074 whole entry): T1 sequence (whole entry)

[3] = target: T1, Proteasome Macropain subunit MB1 (Homo sapiens); assay: Inhibition of chymotrypsin-like activity of human 20S proteasome at 1 uM using Suc-Leu-Leu-Val-Tyr-AMC as substrate by fluorescence assay relative to control
[4] = target: T2, Proteasome Macropain subunit MB1; assay: Inhibition of chymotrypsin-like activity of human LCL-derived 20S proteasome using Suc-LLVY-AMC as substrate preincubated with enzyme followed by substrate addition measured after 30 mins by fluorescence assay
HL-60 = assay: Antiproliferative activity against human HL60 cells after 72 hrs by SRB assay; assay type: functional, cell-based; conditions: HL-60, 72 h
RPMI-8226 = assay: Antiproliferative activity against human RPMI8226 cells after 72 hrs by SRB assay; assay type: functional, cell-based; conditions: RPMI-8226, 72 h
MDA-MB-231 = assay: Antiproliferative activity against human MDA-MB-231 cells after 72 hrs by SRB assay; assay type: functional, cell-based; conditions: MDA-MB-231, 72 h
A2780 = assay: Antiproliferative activity against human A2780 cells after 72 hrs by SRB assay; assay type: functional, cell-based; conditions: A2780, 72 h
[5] = Metabolic stability in Sprague-Dawley rat liver microsomes assessed as compound remaining at 20 uM preincubated for 5 mins followed by NADPH addition measured after 20 mins by HPLC analysis; assay type: ADME, microsome; conditions: read-out: Stability
A549 = assay: Antiproliferative activity against human A549 cells after 72 hrs by SRB assay; assay type: functional, cell-based; conditions: A549, 72 h
Homo sapiens = organism: Homo sapiens; assay: Inhibition of 20S proteasome activity in human MDA-MB-231 cells assessed as accumulation of ubiquitinated proteins at 50 nM by Western blot method; assay type: cell-based
[6] = Drug metabolism in human plasma administered as iv bolus dose after 30 mins; assay type: ADME, organism-based; conditions: read-out: Drug metabolism

Compound	inhibition [1]	inhibition [3]	other results
CC1=C(N[C@@H](Cc2ccccc2)C(=O)N[C@@H](CC(C)C)B(O)O)C(=O)c2ccccc2C1=O	84.7%	> 50%	IC50 [2]: 25.9 nM
CC1=C(N[C@@H](C)C(=O)N[C@@H](CC(C)C)B(O)O)C(=O)c2ccccc2C1=O	52.3%	> 50%	
O=CN(O)CCC[C@@H](NC(=O)[C@H](CO)NC(=O)[C@@H]1COC(c2ccccc2O)=N1)C(=O)NCCC(=O)N[C@@H]1CCCN(O)C1=O			IC50 [4]: 39400 nM
C[C@@H](CO)NC(=O)c1ccccc1O			IC50 [4]: 24800 nM
CC(C)C[C@H](NC(=O)[C@H](Cc1ccccc1)NC1=C(Cl)C(=O)c2ccccc2C1=O)B(O)O	86.7%	> 50%	IC50 [2]: 24.6 nM
CC1=C(N[C@@H](CC(C)C)C(=O)N[C@@H](CC(C)C)B(O)O)C(=O)c2ccccc2C1=O	31.4%	> 50%	
CC(C)C[C@H](NC(=O)[C@@H](NC1=C(Cl)C(=O)c2ccccc2C1=O)C(C)C)B(O)O	47.4%	> 50%	
CC(C)C[C@H](NC(=O)[C@H](Cc1ccccc1)NC(=O)c1cnccn1)B(O)O [BORTEZOMIB]			IC50 (HL-60): 3.2 nM; IC50 (RPMI-8226): 6.7 nM; IC50 (MDA-MB-231): 6.5 nM; IC50 (A2780): 28.9 nM; remaining at 20 min, 20 µM [5]: 44%; IC50 (A549): 2.5 nM
CC1=C(N[C@H](C(=O)N[C@@H](CC(C)C)B(O)O)C(C)C)C(=O)c2ccccc2C1=O	42.3%	> 50%	
CC(C)C[C@H](NC(=O)[C@@H](NC1=CC(=O)c2ccccc2C1=O)C(C)C)B(O)O	69.2%	> 50%	
CC(C)C[C@H](NC(=O)[C@H](CC(C)C)NC1=C(Cl)C(=O)c2ccccc2C1=O)B(O)O	43.5%	> 50%	
CC(C)C[C@H](NC(=O)[C@H](CC(C)C)NC1=CC(=O)c2ccccc2C1=O)B(O)O	79.8%	> 50%	IC50 [2]: 44.3 nM
CC(C)C[C@H](NC(=O)CNC(=O)c1cc(Cl)ccc1Cl)B(O)O [IXAZOMIB]			metabolised at 0.5 h [6]: 90%
CC(C)C[C@H](NC(=O)[C@H](Cc1ccccc1)NC1=CC(=O)c2ccccc2C1=O)B(O)O	90.3%	> 50%	IC50 [2]: 11.4 nM; IC50 (HL-60): 1110 nM; IC50 (RPMI-8226): 1090 nM; IC50 (MDA-MB-231): 38.3 nM; IC50 (A2780): 470 nM; inhibition (Homo sapiens): Active; remaining at 20 min, 20 µM [5]: 60%; IC50 (A549): 679 nM

More lines, main results first:

inhibition [1]	inhibition [3]	Compound	other results
65.9%	> 50%	CC1=C(NCC(=O)N[C@@H](CC(C)C)B(O)O)C(=O)c2ccccc2C1=O	
67.5%	> 50%	CC(C)C[C@H](NC(=O)[C@H](C)NC1=CC(=O)c2ccccc2C1=O)B(O)O	
64.8%	> 50%	CC(C)C[C@H](NC(=O)[C@H](C)NC1=C(Cl)C(=O)c2ccccc2C1=O)B(O)O	
84.9%	> 50%	CC(C)C[C@H](NC(=O)CNC1=CC(=O)c2ccccc2C1=O)B(O)O	IC50 [2]: 23.2 nM; IC50 (HL-60): 3590 nM; IC50 (RPMI-8226): 3460 nM; IC50 (MDA-MB-231): 1250 nM; IC50 (A2780): 3700 nM; inhibition (Homo sapiens): Active; IC50 (A549): 2890 nM
67.7%	> 50%	CC(C)C[C@H](NC(=O)CNC1=C(Cl)C(=O)c2ccccc2C1=O)B(O)O	

From ChEMBL document CHEMBL4004842, “Design, synthesis and biological evaluation of novel non-peptide boronic acid derivatives as proteasome inhibitors” (Eur J Med Chem, 2017)
